# Read-outs that look alike come from different tables or passages of the source. Where a SMILES comes first, the peptide text is derived from it. [ ]: non-standard residue; d: D form. Phe(ol) = N[C@H](CO)Cc1ccccc1; Aib = CC(C)(N)C(=O)O
# Columns and labels:
# [1] = tested on: T. gondii RH strain (RH-Tub-eYFP) tachyzoites; assay: microbe, parasite or virus in culture; assay type: cell-based, Toxoplasma gondii; conditions: 72 h; for percent parasite growth at 2 µg/mL: Toxoplasma gondii
# [2] = tested on: P. falciparum 3D7 parasites; assay: P. falciparum growth inhibition assay, 2-cycle (120 h treatment), delayed-death screen and dose-response; assay type: cell-based, Plasmodium falciparum; conditions: for 3) Fold change (72 h/120 h): growth at 72 h / growth at 120 h, 2 μg/mL
# [3] = tested on: P. falciparum 3D7 parasites; assay: P. falciparum growth inhibition assay, 1-cycle (72 h treatment), SYBR DNA staining (library screen at 2 μg/mL and dose-response); assay type: cell-based, Plasmodium falciparum
# [4] = Plasmodium falciparum, 3D7; P. falciparum, 2 μg/mL, 120 h; read-out: 2) Growth (%) at 120 h
# [5] = Plasmodium falciparum, 3D7; P. falciparum, 2 μg/mL, 72 h; read-out: 1) Growth (%) at 72 h
# [6] = library screen at 2 μg/mL, % growth, replicate 1
# [7] = library screen at 2 μg/mL, % growth, replicate 2
# [8] = library screen at 2 μg/mL, 120 h, % growth, replicate 1
# [9] = library screen at 2 μg/mL, 120 h, % growth, replicate 2
# [10] = library screen at 2 μg/mL, 72 h, % growth, replicate 1
# [11] = library screen at 2 μg/mL, 72 h, % growth, replicate 2
# [12] = T. gondii, screen at 2 μg/mL, replicate 1, read-out: Tg_72h_%Growth_Rep1
# [13] = T. gondii, screen at 2 μg/mL, replicate 2, read-out: Tg_72h_%Growth_Rep2
# [14] = Plasmodium falciparum, 3D7, P. falciparum, 120 h, screen at 2 μg/mL, replicate 1, read-out: Pf_120h_%Growth_Rep1
# [15] = Plasmodium falciparum, 3D7, P. falciparum, 120 h, screen at 2 μg/mL, replicate 2, read-out: Pf_120h_%Growth_Rep2
# [16] = Plasmodium falciparum, 3D7, P. falciparum, 72 h, screen at 2 μg/mL, replicate 1, read-out: Pf_72h_%Growth_Rep1
# [17] = Plasmodium falciparum, 3D7, P. falciparum, 72 h, screen at 2 μg/mL, replicate 2, read-out: Pf_72h_%Growth_Rep2
# [18] = T. gondii, parasite screen at 2 μg/mL, % growth, replicate 1
# [19] = T. gondii, parasite screen at 2 μg/mL, % growth, replicate 2
# [20] = P. falciparum 3D7, 120 h, parasite screen at 2 μg/mL, % growth, replicate 1
# [21] = P. falciparum 3D7, 120 h, parasite screen at 2 μg/mL, % growth, replicate 2
# [22] = P. falciparum 3D7, 72 h, parasite screen at 2 μg/mL, % growth, replicate 1
# [23] = P. falciparum 3D7, 72 h, parasite screen at 2 μg/mL, % growth, replicate 2
structure (smiles),measurement,setting,value
CC(=O)NC(C)(C)C(=O)N1CCC[C@H]1C(=O)NC(C)(C)C(=O)N[C@@H](C)C(=O)NC(C)(C)C(=O)N[C@@H](C)C(=O)N[C@@H](CCC(N)=O)C(=O)NC(C)(C)C(=O)N[C@H](C(=O)NC(C)(C)C(=O)NCC(=O)N[C@@H](CC(C)C)C(=O)NC(C)(C)C(=O)N1CCC[C@H]1C(=O)N[C@H](C(=O)NC(C)(C)C(=O)NC(C)(C)C(=O)N[C@@H](CCC(N)=O)C(=O)N[C@@H](CCC(N)=O)C(=O)N[C@H](CO)Cc1ccccc1)C(C)C)C(C)C [Alamethicin F50] (Ac-[Aib]P[Aib]A[Aib]AQ[Aib]V[Aib]GL[Aib]PV[Aib][Aib]QQ[Phe(ol)]),percent parasite growth at 2 µg/mL,"[1]; library screen at 2 μg/mL, % growth, replicate 1, read-out: Tg_72h_%Growth_Rep1",92.3%
same,percent parasite growth at 2 µg/mL,"[1]; library screen at 2 μg/mL, % growth, replicate 2, read-out: Tg_72h_%Growth_Rep2",87.6%
same,3) Fold change (72 h/120 h),[2]; P. falciparum,6.4
same,activity at 2 µg/mL,[2]; [4],3.45%
same,activity at 2 µg/mL,"[2]; Plasmodium falciparum, 3D7, library screen at 2 μg/mL, 120 h, % growth, replicate 1, read-out: Pf_120h_%Growth_Rep1",8.66%
same,activity at 2 µg/mL,"[2]; Plasmodium falciparum, 3D7, library screen at 2 μg/mL, 120 h, % growth, replicate 2, read-out: Pf_120h_%Growth_Rep2",-1.76%
same,activity at 2 µg/mL,[3]; [5],22%
same,activity at 2 µg/mL,"[3]; Plasmodium falciparum, 3D7, library screen at 2 μg/mL, 72 h, % growth, replicate 1, read-out: Pf_72h_%Growth_Rep1",21.9%
same,activity at 2 µg/mL,"[3]; Plasmodium falciparum, 3D7, library screen at 2 μg/mL, 72 h, % growth, replicate 2, read-out: Pf_72h_%Growth_Rep2",22.1%
CCC(=O)Nc1c2sscc-2n(C)c1=O [Aureothricin],Tg_72h_%Growth_Rep1,[1]; [6],1.55%
same,Tg_72h_%Growth_Rep2,[1]; [7],1.43%
same,Pf_120h_%Growth_Rep1,[2]; [8],11.34%
same,Pf_120h_%Growth_Rep2,[2]; [9],-0.06%
same,Pf_72h_%Growth_Rep1,[3]; [10],7.64%
same,Pf_72h_%Growth_Rep2,[3]; [11],5.69%
CCCCCC[C@H]1C(=O)O[C@H](C)[C@@H](O)/C=C/C=C/C=C/C=C/C=C(\C)[C@@H](O)C[C@H](O)C[C@H](O)C[C@H](O)C[C@H](O)C[C@H](O)C[C@@H]1O [Filipin II],Tg_72h_%Growth_Rep1,[1]; [6],129.59%
same,Tg_72h_%Growth_Rep2,[1]; [7],103.40%
same,Pf_120h_%Growth_Rep1,[2]; [8],90.65%
same,Pf_120h_%Growth_Rep2,[2]; [9],90.94%
same,Pf_72h_%Growth_Rep1,[3]; [10],85.18%
same,Pf_72h_%Growth_Rep2,[3]; [11],87.84%
COc1c(OC/C=C(\C)CCC=C(C)C)ccc2ccc(=O)oc12 [Collinin],percent parasite growth at 2 µg/mL,[1]; [12],77.5%
same,percent parasite growth at 2 µg/mL,[1]; [13],110%
same,activity at 2 µg/mL,[2]; [14],60.9%
same,activity at 2 µg/mL,[2]; [15],78%
same,activity at 2 µg/mL,[3]; [16],69.5%
same,activity at 2 µg/mL,[3]; [17],86.1%
COc1cc(O)c2c(c1)C(=O)c1cc3c(c(O)c1C2=O)C(OC1OC(C)C(OC)C(O)C1OC)C(OC)C(C)(O)C3=O (stereo not drawn) [Steffimycin B],Tg_72h_%Growth_Rep1,"[1]; T. gondii, parasite screen 2 μg/mL, % growth, replicate 1",26.05%
same,Tg_72h_%Growth_Rep2,"[1]; T. gondii, parasite screen 2 μg/mL, % growth, replicate 2",22.83%
same,Pf_120h_%Growth_Rep1,"[2]; P. falciparum, 120 h, parasite screen 2 μg/mL, % growth, replicate 1",57.65%
same,Pf_120h_%Growth_Rep2,"[2]; P. falciparum, 120 h, parasite screen 2 μg/mL, % growth, replicate 2",80.04%
same,Pf_72h_%Growth_Rep1,"[3]; P. falciparum, 72 h, parasite screen 2 μg/mL, % growth, replicate 1",70.82%
same,Pf_72h_%Growth_Rep2,"[3]; P. falciparum, 72 h, parasite screen 2 μg/mL, % growth, replicate 2",45.75%
CO[C@@H]1[C@@H](OC(N)=O)[C@@H](O)[C@H](Oc2ccc3c(O)c(NC(=O)c4ccc(O)c(CCC(C)C)c4)c(=O)oc3c2C)OC1(C)C [Dihydronovobiocin],Tg_72h_%Growth_Rep1,[1]; [6],162.91%
same,Tg_72h_%Growth_Rep2,[1]; [7],101.29%
same,Pf_120h_%Growth_Rep1,[2]; [8],93.97%
same,Pf_120h_%Growth_Rep2,[2]; [9],91.59%
same,Pf_72h_%Growth_Rep1,[3]; [10],88.16%
same,Pf_72h_%Growth_Rep2,[3]; [11],85.96%
CC[C@H]1OC(=O)[C@H](C)[C@@H](O[C@H]2C[C@@](C)(OC)[C@@H](O)[C@H](C)O2)[C@H](C)[C@@H](O[C@@H]2O[C@H](C)C[C@H](N(C)C)[C@H]2O)[C@](C)(O)C[C@@H](C)C(=O)[C@H](C)[C@@H](O)[C@H]1C [Erythromycin B],Tg_72h_%Growth_Rep1,[1]; [6],53.14%
same,Tg_72h_%Growth_Rep2,[1]; [7],48.82%
same,Pf_120h_%Growth_Rep1,[2]; [8],64.18%
same,Pf_120h_%Growth_Rep2,[2]; [9],47.52%
same,Pf_72h_%Growth_Rep1,[3]; [10],77.77%
same,Pf_72h_%Growth_Rep2,[3]; [11],67.71%
CN(C)[C@@H]1C(O)=C(C(N)=O)C(=O)[C@@]2(O)C(O)=C3C(=O)c4c(O)cccc4[C@@](C)(O)[C@H]3[C@H](O)[C@@H]12 [BIA-O1336],Tg_72h_%Growth_Rep1,[1]; [18],105.05%
same,Tg_72h_%Growth_Rep2,[1]; [19],93.22%
same,Pf_120h_%Growth_Rep1,[2]; [20],15.40%
same,Pf_120h_%Growth_Rep2,[2]; [21],14.90%
same,Pf_72h_%Growth_Rep1,[3]; [22],45.04%
same,Pf_72h_%Growth_Rep2,[3]; [23],49.67%
CC[C@H](C)[C@H]1O[C@]2(C=C[C@@H]1C)C[C@@H]1C[C@@H](C/C=C(\C)[C@@H](O[C@H]3C[C@H](OC)[C@@H](O)[C@H](C)O3)[C@@H](C)/C=C/C=C3\CO[C@@H]4[C@H](O)C(C)=C[C@@H](C(=O)O1)[C@]34O)O2 [Avermectin B1a monosaccharide],Tg_72h_%Growth_Rep1,[1]; [6],153.46%
same,Tg_72h_%Growth_Rep2,[1]; [7],93.98%
same,Pf_120h_%Growth_Rep1,[2]; [8],24.77%
same,Pf_120h_%Growth_Rep2,[2]; [9],20.49%
same,Pf_72h_%Growth_Rep1,[3]; [10],47.44%
same,Pf_72h_%Growth_Rep2,[3]; [11],32.72%
CC1CC=CC=CC=CC=CC(OC2OC(C)C(O)C(N)C2O)CC2OC(O)(CC(O)CC3OC3C=CC(=O)O1)CC(O)C2C(=O)O (stereo not drawn) [BIA-P1210],Tg_72h_%Growth_Rep1,[1]; [18],91.98%
same,Tg_72h_%Growth_Rep2,[1]; [19],100.38%
same,Pf_120h_%Growth_Rep1,[2]; [20],62.24%
same,Pf_120h_%Growth_Rep2,[2]; [21],79.36%
same,Pf_72h_%Growth_Rep1,[3]; [22],82.66%
same,Pf_72h_%Growth_Rep2,[3]; [23],61.24%
CC(=O)c1c(O)c(C(C)=O)c(O)c(C(C)=O)c1O [Triacetylphloroglucinol],Tg_72h_%Growth_Rep1,"[1]; T. gondii, screen at 2 μg/mL, replicate 1",132.07%
same,Tg_72h_%Growth_Rep2,"[1]; T. gondii, screen at 2 μg/mL, replicate 2",93.42%
same,Pf_120h_%Growth_Rep1,"[2]; P. falciparum, 120 h, screen at 2 μg/mL, replicate 1",80.17%
same,Pf_120h_%Growth_Rep2,"[2]; P. falciparum, 120 h, screen at 2 μg/mL, replicate 2",112.26%
same,Pf_72h_%Growth_Rep1,"[3]; P. falciparum, 72 h, screen at 2 μg/mL, replicate 1",83.84%
same,Pf_72h_%Growth_Rep2,"[3]; P. falciparum, 72 h, screen at 2 μg/mL, replicate 2",50.48%
"CC[C@H]1OC(=O)C[C@@H](O)[C@H](C)[C@@H](O[C@@H]2O[C@H](C)[C@@H](O[C@H]3C[C@@](C)(O)[C@@H](O)[C@H](C)O3)[C@H](N(C)C)[C@H]2O)[C@@H](CC=O)C[C@@H](C)C(=O)/C=C/C(C)=C/[C@@H]1CO[C@@H]1O[C@H](C)[C@@H](O)[C@@H](OC)[C@H]1OC [Tylosin, reference compound]",percent parasite growth at 2 µg/mL,[1]; [12],29.4%
same,percent parasite growth at 2 µg/mL,[1]; [13],23.4%
same,3) Fold change (72 h/120 h),[2]; P. falciparum,2.3
same,activity at 2 µg/mL,[2]; [4],17.3%
same,activity at 2 µg/mL,[2]; [14],31.5%
same,activity at 2 µg/mL,[2]; [15],3.04%
same,activity at 2 µg/mL,[3]; [5],39.2%
same,activity at 2 µg/mL,[3]; [16],39.8%
same,activity at 2 µg/mL,[3]; [17],38.7%
CN(C)c1ncnc2c1ncn2[C@@H]1O[C@H](CO)[C@@H](N)[C@H]1O [Puromycin aminonucleoside],percent parasite growth at 2 µg/mL,"[1]; T. gondii, parasite screen 2 μg/mL, % growth, replicate 1, read-out: Tg_72h_%Growth_Rep1",-2.04%
same,percent parasite growth at 2 µg/mL,"[1]; T. gondii, parasite screen 2 μg/mL, % growth, replicate 2, read-out: Tg_72h_%Growth_Rep2",0.2%
same,activity at 2 µg/mL,"[2]; Plasmodium falciparum, 3D7, 120 h, P. falciparum, 120 h, parasite screen 2 μg/mL, % growth, replicate 1, read-out: Pf_120h_%Growth_Rep1",69.5%
same,activity at 2 µg/mL,"[2]; Plasmodium falciparum, 3D7, 120 h, P. falciparum, 120 h, parasite screen 2 μg/mL, % growth, replicate 2, read-out: Pf_120h_%Growth_Rep2",57.6%
same,activity at 2 µg/mL,"[3]; Plasmodium falciparum, 3D7, 72 h, P. falciparum, 72 h, parasite screen 2 μg/mL, % growth, replicate 1, read-out: Pf_72h_%Growth_Rep1",78%
same,activity at 2 µg/mL,"[3]; Plasmodium falciparum, 3D7, 72 h, P. falciparum, 72 h, parasite screen 2 μg/mL, % growth, replicate 2, read-out: Pf_72h_%Growth_Rep2",105%
